Reference: patent publication US20230025510A1, “BIARYL ETHER-TYPE QUINAZOLINE DERIVATIVES” (DAIICHI SANKYO COMPANY, LIMITED, priority 2018, published 2023)

Columns and labels:
Assay type in all cases: cell-based
[1] = system: Ba/F3-EGFR ins. SVD cells; experiment: Cell proliferation suppression test (CellTiter-Glo, GI50), Ba/F3-EGFR ins. SVD; conditions: Mus musculus, 72 h, 3 days, N=4
Experimental: (§1) Cell proliferation suppression test Ba/F3-Mock, Ba/F3-EGFR WT, Ba/F3-EGFR ins. ASV, and Ba/F3-EGFR ins. SVD cell lines were cultured based on a culture medium of 10% FBS-containing RPMI 1640 supplemented with 1.5 ug/mL puromycin, and 5 ng/mL IL-3 and 100 ng/mL of EGF were further added to the culture solution for Ba/F3-Mock and Ba/F3-EGFR WT, respectively. The cells were cultured in a CO2 incubator set at 37° C., 5% CO2. Specimens prepared by dilution were seeded into 384-well tissue culture plates with Echo555 (Labcyte Inc.), and the cells were seeded thereto at 400 cells/well for Ba/F3-Mock, Ba/F3-EGFR WT, and Ba/F3-EGFR ins. SVD and at 200 cells/well for Ba/F3-EGFR ins. ASV (day 0), then they were cultured for an additional 3 days. On the day of the compound addition (day 0) and 3 days after the compound addition (day 3), ATP quantity was measured with CellTiter-Glo (registered trademark) 2.0 (Promega Corporation.), and used as an indicator of cell quantity (N=4). In the test, puromycin-free culture medium was used. Concentrations at which cell proliferation from day 0 to day 3 was inhibited by 50% (GIso) were calculated with EXCEL.

Ba/F3-Mock cells = experiment: Cell proliferation suppression test (CellTiter-Glo, GI50), Ba/F3-Mock; conditions: Mus musculus, BaF3, 72 h, 5 ng/mL IL-3, 3 days, N=4
Experimental: as §1

[2] = system: Ba/F3-EGFR ins. ASV cells; experiment: Cell proliferation suppression test (CellTiter-Glo, GI50), Ba/F3-EGFR ins. ASV; conditions: Mus musculus, 72 h, 3 days, N=4
Experimental: as §1

Ba/F3-EGFR WT cells = experiment: Cell proliferation suppression test (CellTiter-Glo, GI50), Ba/F3-EGFR WT; conditions: Mus musculus, 72 h, 100 ng/mL EGF, 3 days, N=4
Experimental: as §1

Row | SMILES | GI50 [1] [nM] | GI50 (Ba/F3-Mock cells) [nM] | GI50 [2] [nM] | GI50 (Ba/F3-EGFR WT cells) [nM]
1 | CCOc1cc2ncnc(Nc3ccc(Oc4cccc(-c5nnc(CC)o5)c4)cc3F)c2cc1NC(=O)/C=C/CN(C)C [Example 42, (2E)-4-(Dimethylamino)-N-(7-ethoxy-4-{4-[3-(5-ethyl-1,3,4-oxadiazol-2-yl)phenoxy]-2-fluoroanilino}quinazolin-6-yl)but-2-enamide] | 17.7 | 764 | 5.1 | 103
2 | COc1cc2ncnc(Nc3ccc(Oc4nn(CC(=O)NC(C)(C)CF)cc4F)cc3Cl)c2cc1NC(=O)/C=C/CN(C)C [Example 48, (2E)-N-(4-{2-Chloro-4-[(4-fluoro-1-{2-[(1-fluoro-2-methylpropan-2-yl)amino]-2-oxoethyl}-1H-pyrazol-3-yl)oxy]anilino}-7-methoxyquinazolin-6-yl)-4-(dimethylamino) but-2-enamide] | 4.9 | 3170 | 8.1 | 638
3 | C=CC(=O)N1CCC(Oc2cc3c(Nc4ccc(Oc5nc(-c6ccc(CC)nc6)cs5)cc4F)ncnc3cc2OC)CC1 [Example 34, 1-(4-{[4-(4-{[4-(6-Ethylpyridin-3-yl)-1,3-thiazol-2-yl]oxy}-2-fluoroanilino)-7-methoxyquinazolin-6-yl]oxy}piperidin-1-yl)prop-2-en-1-one] | 13.7 | > 10000 | 20.5 | 276
4 | C=CC(=O)N1CCC(Oc2cc3c(Nc4ccc(Oc5ccn(C(=O)NC6(C(F)(F)F)CC6)n5)cc4F)ncnc3cc2OC)CC1 [Example 22, 3-{3-Fluoro-4-[(7-methoxy-6-{[1-(prop-2-enoyl)piperidin-4-yl]oxy}quinazolin-4-yl)amino]phenoxy}-N-[1-(trifluoromethyl)cyclopropyl]-1H-pyrazole-1-carboxamide] | 12.8 | 8620 | 14.5 | 102
5 | C=CC(=O)N1CCC(Oc2cc3c(Nc4ccc(Oc5ccn(C(=O)NC(C)(C)C)n5)cc4F)ncnc3cc2OC)CC1 [Example 4, N-tert-Butyl-3-{3-fluoro-4-[(7-methoxy-6-{[1-(prop-2-enoyl)piperidin-4-yl]oxy}quinazolin-4-yl)amino]phenoxy}-1H-pyrazole-1-carboxamide] | 5 | 7610 | 7.4 | 78.3
6 | C=CC(=O)N1CCC(Oc2cc3c(Nc4ccc(Oc5cccc(-c6cn(C)nn6)c5)cc4Cl)ncnc3cc2OC)CC1 [Example 3, 1-{4-[(4-{2-Chloro-4-[3-(1-methyl-1H-1,2,3-triazol-4-yl)phenoxy]anilino}-7-methoxyquinazolin-6-yl)oxy]piperidin-1-yl}prop-2-en-1-one] | 30 | 9930 | 40.6 | 370
7 | COc1cc2ncnc(Nc3ccc(Oc4nn(CC(=O)NC(C)(C)C)cc4F)cc3F)c2cc1NC(=O)/C=C/CN(C)C [Example 46, (2E)-N-{4-[4-({1-[2-(tert-Butylamino)-2-oxoethyl]-4-fluoro-1H-pyrazol-3-yl}oxy)-2-fluoroanilino]-7-methoxyquinazolin-6-yl}-4-(dimethylamino)but-2-enamide] | 4.7 | 3090 | 6.5 | 261
8 | COc1cc2ncnc(Nc3ccc(Oc4cccc(-c5nnc(C(C)C)o5)c4)cc3F)c2cc1NC(=O)/C=C/CN(C)C [Example 43, (2E)-4-(Dimethylamino)-N-[4-(2-fluoro-4-{3-[5-(propan-2-yl)-1,3,4-oxadiazol-2-yl]phenoxy}anilino)-7-methoxyquinazolin-6-yl]but-2-enamide] | 14.1 | 806 | 5.5 | 69.8
9 | C=CC(=O)N1CCC(Oc2cc3c(Nc4ccc(Oc5ccn(-c6ccc(C7CC7)nc6)n5)cc4F)ncnc3cc2OC)CC1 [Example 31] | 12.8 | > 10000 | 15.5 | 241
10 | C=CC(=O)N1CCC(Oc2cc3c(Nc4ccc(Oc5ccn(C(=O)NC(C)(CF)CF)n5)cc4F)ncnc3cc2OC)CC1 [Example 23, N-(1,3-Difluoro-2-methylpropan-2-yl)-3-{3-fluoro-4-[(7-methoxy-6-{[1-(prop-2-enoyl)piperidin-4-yl]oxy}quinazolin-4-yl)amino]phenoxy}-1H-pyrazole-1-carboxamide] | 10.9 | 5530 | 12.4 | 110
11 | COc1cc2ncnc(Nc3ccc(Oc4cccc(-c5nnc(C)o5)c4)cc3F)c2cc1NC(=O)/C=C/CN1CCCC1 [Example 50, (2E)-N-(4-{2-Fluoro-4-[3-(5-methyl-1,3,4-oxadiazol-2-yl)phenoxy]anilino}-7-methoxyquinazolin-6-yl)-4-(pyrrolidin-1-yl)but-2-enamide] | 62.2 | 750 | 10.9 | 240
12 | C=CC(=O)N1CCC(Oc2cc3c(Nc4ccc(Oc5nc(-c6cnc(OC)nc6)cs5)cc4F)ncnc3cc2OC)CC1 [Example 16, 1-(4-{[4-(2-Fluoro-4-{[4-(2-methoxypyrimidin-5-yl)-1,3-thiazol-2-yl]oxy}anilino)-7-methoxyquinazolin-6-yl]oxy}piperidin-1-yl)prop-2-en-1-one] | 11.3 | > 10000 | 11.4 | 320
13 | COc1cc2ncnc(Nc3ccc(Oc4nc(-c5nnc(C6CC6)o5)cs4)cc3F)c2cc1NC(=O)/C=C/CN1CC[C@@H](F)C1 [Example 62, (2E)-N-[4-(4-{[4-(5-Cyclopropyl-1,3,4-oxadiazol-2-yl)-1,3-thiazol-2-yl]oxy}-2-fluoroanilino)-7-methoxyquinazolin-6-yl]-4-[(3R)-3-fluoropyrrolidin-1-yl]but-2-enamide] | 210 | 1490 | 43.9 | 733
14 | C=CC(=O)N1CCC(Oc2cc3c(Nc4ccc(Oc5nc(-c6cnc(C)c(F)c6)cs5)cc4F)ncnc3cc2OC)CC1 [Example 11, 1-(4-{[4-(2-Fluoro-4-{[4-(5-fluoro-6-methylpyridin-3-yl)-1,3-thiazol-2-yl]oxy}anilino)-7-methoxyquinazolin-6-yl]oxy}piperidin-1-yl)prop-2-en-1-one] | 12.5 | > 10000 | 11.3 | 290
15 | C=CC(=O)N1CCC(Oc2cc3c(Nc4ccc(Oc5ccn(C(=O)NC6(C)CC6)n5)cc4F)ncnc3cc2OC)CC1 [Example 8, 3-{3-Fluoro-4-[(7-methoxy-6-{[1-(prop-2-enoyl)piperidin-4-yl]oxy}quinazolin-4-yl)amino]phenoxy}-N-(1-methylcyclopropyl)-1H-pyrazole-1-carboxamide] | 19.7 | 7160 | 19.8 | 172
16 | C=CC(=O)N1CCC(Oc2cc3c(Nc4ccc(Oc5ccn(-c6cnc(C)c(F)c6)n5)cc4F)ncnc3cc2OC)CC1 [Example 27, 1-(4-{[4-(2-Fluoro-4-{[1-(5-fluoro-6-methylpyridin-3-yl)-1H-pyrazol-3-yl]oxy}anilino)-7-methoxyquinazolin-6-yl]oxy}piperidin-1-yl)prop-2-en-1-one] | 11.1 | 8690 | 11.6 | 249
17 | C=CC(=O)N1CCC(Oc2cc3c(Nc4ccc(Oc5cccc(-c6nnc(C)o6)c5)cc4F)ncnc3cc2OCF)CC1 [Example 19, 1-(4-{[7-(Fluoromethoxy)-4-{2-fluoro-4-[3-(5-methyl-1,3,4-oxadiazol-2-yl)phenoxy]anilino}quinazolin-6-yl]oxy}piperidin-1-yl)prop-2-en-1-one] | 20.2 | 4920 | 23.5 | 386
18 | COc1cc2ncnc(Nc3ccc(Oc4ccn(C(=O)N5CCCC5)n4)cc3F)c2cc1NC(=O)/C=C/CN(C)C [Example 26, (2E)-4-(Dimethylamino)-N-[4-(2-fluoro-4-{[1-(pyrrolidin-1-ylcarbonyl)-1H-pyrazo1-3-yl]oxy}anilino)-7-methoxyquinazolin-6-yl]but-2-enamide] | 53.7 | 1060 | 17.5 | 191
19 | COc1cc2ncnc(Nc3ccc(Oc4nn(CC(=O)NC(C)(C)C)cc4F)cc3Cl)c2cc1NC(=O)/C=C/CN1CC[C@H](F)C1 [Example 57, (2E)-N-{4-[4-({1-[2-(tert-Butylamino)-2-oxoethyl]-4-fluoro-1H-pyrazol-3-yl}oxy)-2-chloroanilino]-7-methoxyquinazolin-6-yl}-4-[(3S)-3-fluoropyrrolidin-1-yl]but-2-enamide] | 4.1 | 5090 | 8.5 | 369
20 | C=CC(=O)N1CCC(Oc2cc3c(Nc4ccc(Oc5ccn(-c6ccnc(F)c6)n5)cc4F)ncnc3cc2OC)CC1 [Example 30, 1-(4-{[4-(2-Fluoro-4-{[1-(2-fluoropyridin-4-yl)-1H-pyrazol-3-yl]oxy}anilino)-7-methoxyquinazolin-6-yl]oxy}piperidin-1-yl)prop-2-en-1-one] | 14 | > 10000 | 13.5 | 121
